In patent publication US8410153B2, “Naphthalene isoxazoline invertebrate pest control agents” (E.I. du Pont de Nemours and Company, priority 2007, dated 2013):

Columns and labels:
Type in all cases: in vivo
[1] = tested on: fall armyworm (Spodoptera frugiperda); assay: Test B: control of fall armyworm on corn (maize) plant, foliar spray; conditions: sprayed at 50 ppm
Summary of the method: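 4-5-day-old corn plants pre-infested with 10-15 1-day-old larvae on insect diet, then sprayed with compound at 50 ppm in 10% acetone/90% water with 300 ppm surfactant, three replicates. Held 6 days at 25° C, 70% RH; feeding damage assessed visually and mortality rated.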

[2] = tested on: western flower thrips (Frankliniella occidentalis); assay: Test E: control of western flower thrips on Soleil bean plant, contact and/or systemic; conditions: held 6 days
Summary of the method: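 5–7-day-old Soleil bean plants were sprayed at 250 or 50 ppm in 10% acetone/90% water with 300 ppm X-77 surfactant, three replicates. After drying 1 h, 22–27 adult thrips were added per unit. Mortality and plant damage were rated after 6 days at 25 °C and 45–55% RH.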

[3] = tested on: diamondback moth (Plutella xylostella); assay: Test A: control of diamondback moth on radish plant, foliar spray; conditions: sprayed at 50 ppm, held 6 days
Summary of the method: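 Radish plants 12–14 days old, pre-infested with about 50 neonate larvae, sprayed at 50 ppm in 10% acetone/water with 300 ppm X-77 surfactant; three replicates. After 6 days at 25° C and 70% RH, feeding damage was scored visually and mortality counted.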

Measured: levels of control efficacy (20% or less feeding damage or 80% or more mortality)

CC(C)(C)NC(=O)CNC(=O)c1ccc(C2=NOC(c3cc(Cl)cc(Cl)c3)(C(F)(F)F)C2)c2ccccc12 (stereo not shown) [Compound 24]
very good to excellent: [1] | [2]; sprayed at 250 ppm | [3]

CCNC(=O)CNC(=O)c1ccc(C2=NOC(c3cc(Cl)cc(Cl)c3)(C(F)(F)F)C2)c2ccccc12 (stereo not shown) [Compound 8]
very good to excellent: [1] | [2]; sprayed at 50 ppm | [2]; sprayed at 250 ppm | [3]

CNC(=O)C(C)NC(=O)c1ccc(C2=NOC(c3cc(Br)cc(C(F)(F)F)c3)(C(F)(F)F)C2)c2ccccc12 (mixture of isomers) [Compound 141]
very good to excellent: [1] | [2]; sprayed at 50 ppm | [3]

CC(NC(=O)c1ccc(C2=NOC(c3cc(Br)cc(C(F)(F)F)c3)(C(F)(F)F)C2)c2ccccc12)C(=O)NCC(F)(F)F (mixture of isomers) [Compound 140]
very good to excellent: [1] | [2]; sprayed at 50 ppm | [3]

CSCC(C)NC(=O)c1ccc(C2=NOC(c3cc(C(F)(F)F)cc(C(F)(F)F)c3)(C(F)(F)F)C2)c2ccccc12 (mixture of isomers) [Compound 59]
very good to excellent: [1] | [2]; sprayed at 50 ppm | [2]; sprayed at 250 ppm | [3]

CC(C)(C)CNC(=O)CNC(=O)c1ccc(C2=NOC(c3cc(C(F)(F)F)cc(C(F)(F)F)c3)(C(F)(F)F)C2)c2ccccc12 (stereo not shown) [Compound 103]
very good to excellent: [1] | [2]; sprayed at 50 ppm | [3]

CC(C)NC(=O)CNC(=O)c1ccc(C2=NOC(c3cc(Cl)cc(C(F)(F)F)c3)(C(F)(F)F)C2)c2ccccc12 (stereo not shown) [Compound 63]
very good to excellent: [1] | [2]; sprayed at 50 ppm | [2]; sprayed at 250 ppm | [3]

CSCCC(C)NC(=O)c1ccc(C2=NOC(c3cc(Cl)cc(Cl)c3)(C(F)(F)F)C2)c2ccccc12 (stereo not shown) [Compound 26]
very good to excellent: [1] | [2]; sprayed at 50 ppm | [2]; sprayed at 250 ppm | [3]

CSCCNC(=O)c1ccc(C2=NOC(c3cc(Cl)c(Cl)c(Cl)c3)(C(F)(F)F)C2)c2ccccc12 (stereo not shown) [Compound 15]
very good to excellent: [1] | [2]; sprayed at 50 ppm | [2]; sprayed at 250 ppm | [3]

CSCC(C)NC(=O)c1ccc(C2=NOC(c3cc(C(F)(F)F)cc(C(F)(F)F)c3)(C(F)(F)F)C2)c2ccccc12 (mixture of isomers) [Compound 60]
very good to excellent: [1] | [2]; sprayed at 250 ppm | [3]

O=C(CNC(=O)c1ccc(C2=NOC(c3cc(C(F)(F)F)cc(C(F)(F)F)c3)(C(F)(F)F)C2)c2ccccc12)NCC(F)(F)F (racemic) [Compound 37]
very good to excellent: [1] | [2]; sprayed at 50 ppm | [2]; sprayed at 250 ppm | [3]

CSCCNC(=O)c1ccc(C2=NOC(c3cc(C(F)(F)F)cc(C(F)(F)F)c3)(C(F)(F)F)C2)c2ccccc12 (racemic) [Compound 58]
very good to excellent: [1] | [2]; sprayed at 50 ppm | [2]; sprayed at 250 ppm | [3]

CCN(C)C(=O)CNC(=O)c1ccc(C2=NOC(c3cc(Cl)cc(Cl)c3)(C(F)(F)F)C2)c2ccccc12 (stereo not shown) [Compound 7]
very good to excellent: [1] | [2]; sprayed at 50 ppm | [2]; sprayed at 250 ppm | [3]

CS(=O)(=O)CCNC(=O)c1ccc(C2=NOC(c3cccc(C(F)(F)F)c3)(C(F)(F)F)C2)c2ccccc12 (racemic) [Compound 39]
very good to excellent: [1] | [2]; sprayed at 50 ppm | [2]; sprayed at 250 ppm | [3]

CC(NC(=O)c1ccc(C2=NOC(c3cc(F)cc(C(F)(F)F)c3)(C(F)(F)F)C2)c2ccccc12)C(=O)NCC(F)(F)F (mixture of isomers) [Compound 139]
very good to excellent: [1] | [2]; sprayed at 50 ppm | [3]

COCC(C)NC(=O)c1ccc(C2=NOC(c3cccc(C(F)(F)F)c3)(C(F)(F)F)C2)c2ccccc12 (mixture of isomers) [Compound 47]
very good to excellent: [1] | [2]; sprayed at 50 ppm | [2]; sprayed at 250 ppm | [3]

O=C(CNC(=O)c1ccc(C2=NOC(c3cc(Cl)c(Cl)c(Cl)c3)(C(F)(F)F)C2)c2ccccc12)NCC(F)(F)F (stereo not shown) [Compound 19]
very good to excellent: [1] | [2]; sprayed at 50 ppm | [2]; sprayed at 250 ppm | [3]

CC(CO)NC(=O)c1ccc(C2=NOC(c3cc(Cl)cc(Cl)c3)(C(F)(F)F)C2)c2ccccc12 (mixture of isomers) [Compound 31]
very good to excellent: [1] | [2]; sprayed at 50 ppm | [2]; sprayed at 250 ppm | [3]

O=C(CNC(=O)c1ccc(C2=NOC(c3cc(Cl)cc(Cl)c3)(C(F)(F)F)C2)c2ccccc12)NCCF (stereo not shown) [Compound 12]
very good to excellent: [1] | [2]; sprayed at 50 ppm | [2]; sprayed at 250 ppm | [3]

CSCC(C)NC(=O)c1ccc(C2=NOC(c3cc(Cl)cc(Cl)c3)(C(F)(F)F)C2)c2ccccc12 (stereo not shown) [Compound 30]
very good to excellent: [1] | [2]; sprayed at 250 ppm | [3]
